In patent US10781201B2, “Benzimidazole derivative having JNK inhibitory activity and use thereof” (INDUSTRY-UNIVERSITY COOPERATION FOUNDATION HANYANG …, priority 2017, dated 2020):

Target: human JNK3 enzyme (Homo sapiens, UniProt P53779)
Assay: Measurement of JNK3 enzymatic activity (33P-ATP filter-binding method)
Type: biochemical
Details: ATP 10 μM, ATF2 3 μM
Method: First, a substrate was added to a prepared base reaction buffer solution (20 mM Hepes (pH 7.5), 10 mM MgCl2, 1 mM EGTA, 0.02% Brij35, 0.02 mg/ml BSA, 0.1 mM Na3VO4, 2 mM DTT, 1% DMSO), a human JNK3 enzyme was added into the prepared substrate solution, and the resulting solution was mixed. ATP (10 μM) and ATF2 (3 μM) were used as substrates, and among them, ATP was used as a common substrate. Next, the compound according to the present invention dissolved in 100% DMSO was added to an enzyme reaction solution, and incubated at room temperature for 20 minutes. Subsequently, ^33P-ATP was added to the mixed reaction solution to initiate the reaction, followed by incubation at room temperature for 2 hours, and enzymatic activity was detected by a filter-binding method. Specifically, 25 al per resulting solution was slowly spotted on P81 paper and placed in a scintillation vial, and then the paper was washed four times with 0.75% phosphoric acid for 10 minutes each and washed once with acetone for 5 minutes. 5 ml of a scintillation cocktail was added to the scintillation vial and signals were read using a scintillation counter.

human JNK3 enzyme, sequence (P53779 whole entry): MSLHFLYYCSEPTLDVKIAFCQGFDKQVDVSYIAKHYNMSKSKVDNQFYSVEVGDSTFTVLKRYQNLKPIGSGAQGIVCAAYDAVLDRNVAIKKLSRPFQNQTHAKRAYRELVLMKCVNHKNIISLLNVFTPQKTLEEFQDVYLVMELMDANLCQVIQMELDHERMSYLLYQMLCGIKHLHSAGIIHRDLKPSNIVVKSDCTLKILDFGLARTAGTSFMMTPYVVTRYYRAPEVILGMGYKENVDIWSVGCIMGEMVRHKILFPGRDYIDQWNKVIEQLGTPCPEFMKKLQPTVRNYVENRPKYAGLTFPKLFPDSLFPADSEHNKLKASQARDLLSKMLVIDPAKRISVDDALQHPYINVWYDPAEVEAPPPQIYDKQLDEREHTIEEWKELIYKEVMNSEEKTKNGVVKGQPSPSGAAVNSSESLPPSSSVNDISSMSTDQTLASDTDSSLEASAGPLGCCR

Compound | IC50 (Table 1) [nM] | IC50 (Table 2) [nM] | IC50 (Table 3) [nM]
O=C(C1CC1)N1CCC[C@H](Nc2nccc(-n3c(-c4ccc5occc5c4)nc4cc(O)ccc43)n2)C1 [Compound 13d, (S)-(3-(4-(2-(benzofuran-5-yl)-5-hydroxy-1H-benz[d]imidazole-1-yl)pyrimidin-2-ylamino)piperidine-1-yl)(cyclopropyl)methanone] | < 30 | – | –
O=C(C1CC1)N1CCC[C@H](Nc2nccc(-n3c(-c4ccc(Cl)c(Cl)c4)nc4cc(O)ccc43)n2)C1 [Compound 13e, (S)-cyclopropyl(3-((4-(2-(3,4-dichlorophenyl)-5-hydroxy-1H-benzo[d]imidazole-1-yl)pyrimidin-2-yl)amino)piperidine-1-yl)methanone] | < 30 | – | –
Oc1ccc2c(c1)nc(-c1ccc(F)c(C(F)(F)F)c1)n2-c1ccnc(NC2CCCCC2)n1 [Compound 10f, 1-(2-(cyclohexylamino)pyrimidin-4-yl)-2-(4-fluoro-3-(trifluoromethyl)phenyl)-1H-benzo[d]imidazole-5-ol] | > 100 | – | –
Oc1ccc2c(c1)nc(-c1ccc3occc3c1)n2-c1ccnc(NC2CCOCC2)n1 [Compound 9d, 2-(benzofuran-5-yl)-1-(2-((tetrahydro-2H-pyran-4-yl)amino)pyrimidin-4-yl)-1H-benzo[d]imidazole-5-ol] | > 100 | – | –
Oc1ccc2c(c1)nc(-c1ccc3c(c1)OCCO3)n2-c1ccnc(NC2CCOCC2)n1 [Compound 9c, 2-(2,3-dihydrobenzo[b][1,4]dioxin-6-yl)-1-(2-((tetrahydro-2H-pyran-4-yl)amino)pyrimidin-4-yl)-1H-benzo[d]imidazole-5-ol] | > 100 | – | –
Oc1ccc2c(c1)nc(-c1ccc3c(c1)OCCO3)n2-c1ccnc(NC2CCCCC2)n1 [Compound 10c, 1-(2-(cyclohexylamino)pyrimidin-4-yl)-2-(2,3-dihydrobenzo[b][1,4]dioxin-6-yl)-1H-benzo[d]imidazole-5-ol] | > 100 | – | –
Oc1ccc2c(c1)nc(-c1ccc(F)c(C(F)(F)F)c1)n2-c1ccnc(NC2CCOCC2)n1 [Compound 9f, 2-(4-fluoro-3-(trifluoromethyl)phenyl)-1-(2-((tetrahydro-2H-pyran-4-yl)amino)pyrimidin-4-yl)-1H-benzo[d]imidazole-5-ol] | 30 to 100 | – | –
O=C(C1CC1)N1CCC[C@H](Nc2nccc(-n3c(-c4ccc5ccccc5n4)nc4cc(O)ccc43)n2)C1 [Compound 13b, (S)-cyclopropyl(3-((4-(5-hydroxy-2-(Quinoline-2-yl)-1H-benzo[d]imidazole-1-yl)pyrimidin-2-yl)amino)piperidine-1-yl)methanone] | 30 to 100 | – | –
Oc1ccc2c(c1)nc(-c1ccc(Cl)c(Cl)c1)n2-c1ccnc(NC2CCOCC2)n1 [Compound 9e] | 30 to 100 | – | –
Oc1ccc2c(c1)nc(-c1ccc(Cl)c(Cl)c1)n2-c1ccnc(NC2CCCCC2)n1 [Compound 10e, 1-(2-(cyclohexylamino)pyrimidin-4-yl)-2-(3,4-dichlorophenyl)-1H-benzo[d]imidazole-5-ol] | > 100 | – | –
O=C(C1CC1)N1CCC[C@H](Nc2nccc(-n3c(-c4ccc5c(c4)OCO5)nc4cc(O)ccc43)n2)C1 [Compound 13g, (S)-(3-(4-(2-(benzo[d][1,3]dioxole-5-yl)-5-hydroxy-1H-benz[d]imidazole-1-yl)pyrimidin-2-ylamino)piperidine-1-yl)(cyclopropyl)methanone] | 30 to 100 | – | –
O=C(C1CC1)N1CCC[C@H](Nc2nccc(-n3c(-c4ccc5ccccc5c4)nc4cc(O)ccc43)n2)C1 [Compound 13a, (S)-cyclopropyl(3-((4-(5-hydroxy-2-(naphthalene-2-yl)-1H-benzo[d]imidazole-1-yl)pyrimidin-2-yl)amino)piperidine-1-yl)methanone] | 30 to 100 | – | –
Oc1ccc2c(c1)nc(-c1ccc3occc3c1)n2-c1ccnc(NC2CCCCC2)n1 [Compound 10d, 2-(benzofuran-5-yl)-1-(2-(cyclohexylamine)pyrimidin-4-yl)-1H-benzo[d]imidazole-5-ol] | > 100 | – | –

Second part, the compound after the results:

IC50 (Table 1) [nM] | IC50 (Table 2) [nM] | IC50 (Table 3) [nM] | Compound
– | > 100 | – | Oc1ccc2nc(-c3ccc4ccccc4c3)n(-c3ccnc(NC4CCCCC4)n3)c2c1 [Compound 23a, 1-(2-(cyclohexylamino)pyrimidin-4-yl)-2-(naphthalene-2-yl)-1H-benzo[d]imidazole-6-ol]
– | > 100 | – | Oc1ccc2nc(-c3ccc4occc4c3)n(-c3ccnc(NC4CCCCC4)n3)c2c1 [Compound 23d, 2-(benzofuran-5-yl)-1-(2-(cyclohexylamino)pyrimidin-4-yl)-1H-benzo[d]imidazole-6-ol]
– | < 30 | – | O=C(C1CC1)N1CCC[C@H](Nc2nccc(-n3c(-c4ccc(Cl)c(Cl)c4)nc4ccc(O)cc43)n2)C1 [Compound 26e, (S)-cyclopropyl(3-((4-(2-(3,4-dichlorophenyl)-6-hydroxy-1H-benzo[d]imidazole-1-yl)pyrimidin-2-yl)amino)piperidine-1-yl)methanone]
– | < 30 | – | O=C(C1CC1)N1CCC[C@H](Nc2nccc(-n3c(-c4ccc5occc5c4)nc4ccc(O)cc43)n2)C1 [Compound 26d, (S)-(3-((4-(2-(benzofuran-5-yl)-6-hydroxy-1H-benzo[d]imidazole-1-yl)pyrimidin-2-yl)amino)piperidine-1-yl)(cyclopropyl)methanone]
– | > 100 | – | Oc1ccc2nc(-c3ccc4c(c3)OCCO4)n(-c3ccnc(NC4CCCCC4)n3)c2c1 [Compound 23c, 1-(2-(cyclohexylamino)pyrimidin-4-yl)-2-(2,3-dihydrobenzo[b][1,4]dioxin-6-yl)-1H-benzo[d]imidazole-6-ol]
– | 30 to 100 | – | O=C(C1CC1)N1CCC[C@H](Nc2nccc(-n3c(-c4ccc5ccccc5n4)nc4ccc(O)cc43)n2)C1 [Compound 26b, (S)-cyclopropyl(3-(4-(6-hydroxy-2-(Quinoline-2-yl)-1H-benzo[d]imidazole-1-yl)pyrimidin-2-ylamino)piperidine-1-yl)methanone]
– | 30 to 100 | – | Oc1ccc2nc(-c3ccc(Cl)c(Cl)c3)n(-c3ccnc(NC4CCCCC4)n3)c2c1 [Compound 23e, 1-(2-(cyclohexylamino)pyrimidin-4-yl)-2-(3,4-dichlorophenyl)-1H-benzo[d]imidazole-6-ol]
– | 30 to 100 | – | Oc1ccc2nc(-c3ccc4c(c3)OCCO4)n(-c3ccnc(NC4CCOCC4)n3)c2c1 [Compound 22c, 2-(2,3-dihydrobenzo[b][1,4]dioxin-6-yl)-1-(2-((tetrahydro-2H-pyran-4-yl)amino)pyrimidin-4-yl)-1H-benzo[d]imidazole-6-ol]
30 to 100 | 30 to 100 | 30 to 100 | Oc1c2ccccc2c2c3c(cccc13)N=N2 [SP600125, reference compound]
– | > 100 | – | Oc1ccc2nc(-c3ccc(F)c(C(F)(F)F)c3)n(-c3ccnc(NC4CCCCC4)n3)c2c1 [Compound 23f, 1-(2-(cyclohexylamino)pyrimidin-4-yl)-2-(4-fluoro-3-(trifluoromethyl)phenyl)-1H-benzo[d]imidazole-6-ol]
– | 30 to 100 | – | Oc1ccc2nc(-c3ccc4ccccc4c3)n(-c3ccnc(NC4CCOCC4)n3)c2c1 [Compound 22a, 2-(naphthalene-2-yl)-1-(2-((tetrahydro-2H-pyran-4-yl)amino)pyrimidin-4-yl)-1H-benzo[d]imidazole-6-ol]
– | – | < 30 | O=C(C1CC1)N1CCC[C@@H](Nc2nccc(-n3c(-c4ccc(F)c(C(F)(F)F)c4)nc4cc(O)c(O)cc43)n2)C1 [Compound 35c, (R)-cyclopropyl(3-(4-(2-(4-fluoro-3-(trifluoromethyl)phenyl)-5,6-dihydroxy-1H-benzo[d]imidazole-1-yl)pyrimidin-2-ylamino)piperidine-1-yl)methanone]
